Assay results: patent US20260070945A1, “MACROCYCLIC IMMUNOMODULATORS” (Bristol-Myers Squibb Company, priority 2022, published 2026)
Where a SMILES comes first, the peptide text is derived from it. Bridges are numbered along the chain shown (N, C = ends). [ ]: non-standard residue; d: D form. The star is where a group is joined. ξ: configuration not given here. Phe(3-CF3) = N[C@@H](Cc1cccc(C(F)(F)F)c1)C(=O)O; Phe(4-CF3) = N[C@@H](Cc1ccc(C(F)(F)F)cc1)C(=O)O; Phe(4-COOH) = N[C@@H](Cc1ccc(C(=O)O)cc1)C(=O)O; Bip = N[C@@H](Cc1ccc(-c2ccccc2)cc1)C(=O)O; NH(CH2)14COOH = O=C(O)CCCCCCCCCCCCCCN*; Phe(3-Me) = Cc1cccc(C[C@H](N)C(=O)O)c1; Val(3-OH) = CC(C)(O)[C@H](N)C(=O)O; Cha = N[C@@H](CC1CCCCC1)C(=O)O; Thr(3ξ) = CC(O)[C@H](N)C(=O)O; Carboxymethyl = O=C(O)C*; NMeA = CN[C@@H](C)C(=O)O; Aun = NCCCCCCCCCCC(=O)O; Dab = NCC[C@H](N)C(=O)O; Nva = CCC[C@H](N)C(=O)O; AEEA = NCCOCCOCC(=O)O

target: T1, PD-1/PD-L1 interaction (PE-labeled human PD-L1-Ig binding to Jurkat cell line over-expressing human PD-1) (Homo sapiens, UniProt Q15116); experiment: Jurkat-PD-1 Cell Binding High-Content Screening Assay (CBA); conditions: PE-labeled PD-L1-Ig 20 nM final, Jurkat-hPD-1 cells; read-out: Jurkat HPD1 PDL1 IC50
T1 construct: expressed in transfected cells; host or cells: Jurkat
T1 sequence (Q15116 25-288): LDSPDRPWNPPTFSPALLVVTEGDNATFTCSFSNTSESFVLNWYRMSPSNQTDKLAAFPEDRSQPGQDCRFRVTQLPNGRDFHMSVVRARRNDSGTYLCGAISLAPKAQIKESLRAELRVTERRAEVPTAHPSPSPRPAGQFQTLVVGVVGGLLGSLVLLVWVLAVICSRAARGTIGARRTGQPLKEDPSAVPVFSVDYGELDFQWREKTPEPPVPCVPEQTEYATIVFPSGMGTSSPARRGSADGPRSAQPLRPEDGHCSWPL
Method in brief: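 Read-out: high-content imaging of cell-bound PE fluorescence, with Hoechst 33342 nuclear counterstain after paraformaldehyde fixation. Before labeled ligand (20 nM final, 1 h) was added, compound sat on the cells for 2 h at 37 °C in DMEM/10% FCS.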

| Compound | IC50 |
| --- | --- |
| CC(C)C[C@H]1NC(=O)[C@H](C)N(C)C(=O)[C@H](Cc2ccc(C(=O)O)cc2)NC(=O)[C@H](Cc2ccc(-c3ccccc3)cc2)NC(=O)[C@H](Cc2ccc(C(=O)O)cc2)NC(=O)[C@H](Cc2cccc(C(F)(F)F)c2)NC(=O)[C@H](CC(=O)O)NC(=O)[C@H](Cc2ccc(C(=O)O)cc2)NC(=O)[C@H](C(C)O)NC(=O)CSC[C@@H](C(=O)N[C@@H](CCN)C(=O)NCCCCCCCCCCC(=O)O)NC(=O)[C@H](C(C)O)NC(=O)[C@H](C(C)(C)O)NC(=O)[C@H](CC2CCCCC2)NC(=O)[C@H](CCN)NC1=O (stereo partly drawn) [Example 2573] ({CH2CO}-[Thr(3ξ)][Phe(4-COOH)]D[Phe(3-CF3)][Phe(4-COOH)][Bip][Phe(4-COOH)][NMeA][dL][Dab][Cha][Val(3-OH)][Thr(3ξ)]C[Dab][Aun]-OH; thioether N-14) | 9.7 nM |
| CC(C)C[C@H]1NC(=O)[C@H](C)N(C)C(=O)[C@H](Cc2ccc(OCC(=O)O)cc2)NC(=O)[C@H](Cc2ccc(-c3ccccc3)cc2)NC(=O)[C@H](Cc2ccc(C(=O)O)cc2)NC(=O)[C@H](Cc2cccc(C(F)(F)F)c2)NC(=O)[C@H](CC(=O)O)NC(=O)[C@H](Cc2ccc(OCC(=O)O)cc2)NC(=O)[C@H](C(C)O)NC(=O)CSC[C@@H](C(=O)N[C@@H](CCN)C(=O)NCCCCCCCCCCC(=O)O)NC(=O)[C@H](CCC(=O)O)NC(=O)[C@H](C(C)C)NC(=O)[C@H](CC2CCCCC2)NC(=O)[C@H](CCN)NC1=O (stereo partly drawn) [Example 2574] ({CH2CO}-[Thr(3ξ)]Y(Carboxymethyl)D[Phe(3-CF3)][Phe(4-COOH)][Bip]Y(Carboxymethyl)[NMeA][dL][Dab][Cha]VEC[Dab][Aun]-OH; thioether N-14) | 4.4 nM |
| CC(C)C[C@H]1NC(=O)[C@H](C)N(C)C(=O)[C@H](Cc2ccc(OCC(=O)O)cc2)NC(=O)[C@H](Cc2ccc(-c3ccccc3)cc2)NC(=O)[C@H](Cc2ccc(C(=O)O)cc2)NC(=O)[C@H](Cc2cccc(C(F)(F)F)c2)NC(=O)[C@H](CC(=O)O)NC(=O)[C@H](Cc2ccc(OCC(=O)O)cc2)NC(=O)[C@H](C(C)O)NC(=O)CSC[C@@H](C(=O)N[C@@H](CCN)C(=O)NCCCCCCCCCCC(=O)O)NC(=O)[C@H](CO)NC(=O)[C@H](C(C)(C)O)NC(=O)[C@H](CC2CCCCC2)NC(=O)[C@H](Cc2cnc[nH]2)NC1=O (stereo partly drawn) [Example 2575] ({CH2CO}-[Thr(3ξ)]Y(Carboxymethyl)D[Phe(3-CF3)][Phe(4-COOH)][Bip]Y(Carboxymethyl)[NMeA][dL]H[Cha][Val(3-OH)]SC[Dab][Aun]-OH; thioether N-14) | 29.6 nM |
| CC(=O)NCCCC[C@@H]1NC(=O)[C@H](C(C)(C)O)NC(=O)[C@H](CC2CCCCC2)NC(=O)[C@H](CCN)NC(=O)[C@@H](CC(C)C)NC(=O)[C@H](C)N(C)C(=O)[C@H](CCC(N)=O)NC(=O)[C@H](Cc2ccc(-c3ccccc3)cc2)NC(=O)[C@H](Cc2ccc(C(=O)O)cc2)NC(=O)[C@H](Cc2cccc(C)c2)NC(=O)[C@H](CC(=O)O)NC(=O)[C@H](Cc2ccc(OCC(=O)O)cc2)NC(=O)[C@H](Cc2ccc(OCC(=O)O)cc2)NC(=O)CSC[C@@H](C(=O)N[C@@H](CCN)C(=O)NCCOCCOCC(=O)NCCCCCCCCCCCCCCC(=O)O)NC1=O [Example 2576] ({CH2CO}-Y(Carboxymethyl)Y(Carboxymethyl)D[Phe(3-Me)][Phe(4-COOH)][Bip]Q[NMeA][dL][Dab][Cha][Val(3-OH)]K(Ac)C[Dab][AEEA]-{NH(CH2)14COOH}; thioether N-14) | 103 nM |
| CC(=O)NCCCC[C@@H]1NC(=O)[C@H](C(C)(C)O)NC(=O)[C@H](CC2CCCCC2)NC(=O)[C@H](CCN)NC(=O)[C@@H](CC(C)C)NC(=O)[C@H](C)N(C)C(=O)[C@H](CCC(N)=O)NC(=O)[C@H](Cc2ccc(-c3ccccc3)cc2)NC(=O)[C@H](Cc2ccc(C(=O)O)cc2)NC(=O)[C@H](Cc2cccc(C)c2)NC(=O)[C@H](CC(=O)O)NC(=O)[C@H](Cc2ccc(OCC(=O)O)cc2)NC(=O)[C@H](Cc2ccc(OCC(=O)O)cc2)NC(=O)CSC[C@@H](C(=O)N[C@@H](CCN)C(=O)NCCOCCOCC(=O)N[C@@H](CCC(=O)NCCCCCCCCCCCCCCC(=O)O)C(=O)O)NC1=O [Example 2577] ({CH2CO}-Y(Carboxymethyl)Y(Carboxymethyl)D[Phe(3-Me)][Phe(4-COOH)][Bip]Q[NMeA][dL][Dab][Cha][Val(3-OH)]K(Ac)C[Dab][AEEA]E(NH(CH2)14COOH)-OH; thioether N-14) | 46.9 nM |
| Cc1cccc(C[C@@H]2NC(=O)[C@H](CC(=O)O)NC(=O)[C@H](Cc3ccc(OCC(=O)O)cc3)NC(=O)[C@H](Cc3ccc(C(F)(F)F)cc3)NC(=O)CSC[C@@H](C(=O)N[C@@H](CCN)C(=O)NCCOCCOCC(=O)NCCCCCCCCCCC(=O)O)NC(=O)[C@H](CCC(=O)O)NC(=O)[C@H](C(C)C)NC(=O)[C@H](CC3CCCCC3)NC(=O)[C@H](CCN)NC(=O)[C@@H](CC(C)C)NC(=O)[C@H](C)N(C)C(=O)[C@H](Cc3ccc(C(=O)O)cc3)NC(=O)[C@H](Cc3ccc(-c4ccccc4)cc3)NC(=O)[C@H](Cc3ccc(C(=O)O)cc3)NC2=O)c1 [Example 2578] ({CH2CO}-[Phe(4-CF3)]Y(Carboxymethyl)D[Phe(3-Me)][Phe(4-COOH)][Bip][Phe(4-COOH)][NMeA][dL][Dab][Cha]VEC[Dab][AEEA][Aun]-OH; thioether N-14) | 22.2 nM |
| CC(=O)NCCCC[C@@H]1NC(=O)[C@H](C(C)(C)O)NC(=O)[C@H](CC2CCCCC2)NC(=O)[C@H](CCN)NC(=O)[C@@H](CC(C)C)NC(=O)[C@H](C)N(C)C(=O)[C@H](CCC(N)=O)NC(=O)[C@H](Cc2ccc(-c3ccccc3)cc2)NC(=O)[C@H](Cc2ccc(C(=O)O)cc2)NC(=O)[C@H](Cc2cccc(C(F)(F)F)c2)NC(=O)[C@H](CC(=O)O)NC(=O)[C@H](Cc2ccc(OCC(=O)O)cc2)NC(=O)[C@H](Cc2ccc(OCC(=O)O)cc2)NC(=O)CSC[C@@H](C(=O)N[C@@H](CCN)C(=O)NCCOCCOCC(=O)NCCCCCCCCCCC(=O)O)NC1=O [Example 2579] ({CH2CO}-Y(Carboxymethyl)Y(Carboxymethyl)D[Phe(3-CF3)][Phe(4-COOH)][Bip]Q[NMeA][dL][Dab][Cha][Val(3-OH)]K(Ac)C[Dab][AEEA][Aun]-OH; thioether N-14) | 2.6 nM |
| CC(C)C[C@H]1NC(=O)[C@H](C)N(C)C(=O)[C@H](Cc2ccc(OCC(=O)O)cc2)NC(=O)[C@H](Cc2ccc(-c3ccccc3)cc2)NC(=O)[C@H](Cc2ccc(C(=O)O)cc2)NC(=O)[C@H](Cc2cccc(C(F)(F)F)c2)NC(=O)[C@H](CC(=O)O)NC(=O)[C@H](Cc2ccc(OCC(=O)O)cc2)NC(=O)[C@H](Cc2cnc[nH]2)NC(=O)CSC[C@@H](C(=O)N[C@@H](CCN)C(=O)NCCCCCCCCCCC(=O)O)NC(=O)[C@H](C(C)O)NC(=O)[C@H](C(C)C)NC(=O)[C@H](CC2CCCCC2)NC(=O)[C@H](CCN)NC1=O (stereo partly drawn) [Example 2580] ({CH2CO}-HY(Carboxymethyl)D[Phe(3-CF3)][Phe(4-COOH)][Bip]Y(Carboxymethyl)[NMeA][dL][Dab][Cha]V[Thr(3ξ)]C[Dab][Aun]-OH; thioether N-14) | 6.8 nM |
| CC(C)C[C@H]1NC(=O)[C@H](C)N(C)C(=O)[C@H](Cc2ccc(OCC(=O)O)cc2)NC(=O)[C@H](Cc2ccc(-c3ccccc3)cc2)NC(=O)[C@H](Cc2ccc(C(=O)O)cc2)NC(=O)[C@H](Cc2cccc(C(F)(F)F)c2)NC(=O)[C@H](CC(=O)O)NC(=O)[C@H](Cc2ccc(OCC(=O)O)cc2)NC(=O)[C@H](Cc2cnc[nH]2)NC(=O)CSC[C@@H](C(=O)N[C@@H](CCN)C(=O)NCCCCCCCCCCC(=O)O)NC(=O)[C@H](CCC(=O)O)NC(=O)[C@H](C(C)C)NC(=O)[C@H](CC2CCCCC2)NC(=O)[C@H](CCN)NC1=O [Example 2581] ({CH2CO}-HY(Carboxymethyl)D[Phe(3-CF3)][Phe(4-COOH)][Bip]Y(Carboxymethyl)[NMeA][dL][Dab][Cha]VEC[Dab][Aun]-OH; thioether N-14) | 9.2 nM |
| Cc1cccc(C[C@@H]2NC(=O)[C@H](CC(=O)O)NC(=O)[C@H](Cc3ccc(C(=O)O)cc3)NC(=O)[C@H](C)NC(=O)CSC[C@@H](C(=O)N[C@@H](CCN)C(=O)NCCCCCCCCCCC(=O)O)NC(=O)[C@H](C(C)O)NC(=O)[C@H](C(C)C)NC(=O)[C@H](CC3CCCCC3)NC(=O)[C@H](CCN)NC(=O)[C@@H](CC(C)C)NC(=O)[C@H](C)N(C)C(=O)[C@H](Cc3ccc(C(=O)O)cc3)NC(=O)[C@H](Cc3ccc(-c4ccccc4)cc3)NC(=O)[C@H](Cc3ccc(C(F)(F)F)cc3)NC2=O)c1 (stereo partly drawn) [Example 2582] ({CH2CO}-A[Phe(4-COOH)]D[Phe(3-Me)][Phe(4-CF3)][Bip][Phe(4-COOH)][NMeA][dL][Dab][Cha]V[Thr(3ξ)]C[Dab][Aun]-OH; thioether N-14) | 21.3 nM |
| CCC[C@@H]1NC(=O)[C@H](C(C)(C)O)NC(=O)[C@H](CC2CCCCC2)NC(=O)[C@H](CCN)NC(=O)[C@@H](CC(C)C)NC(=O)[C@H](C)N(C)C(=O)[C@H](Cc2ccc(C(=O)O)cc2)NC(=O)[C@H](Cc2ccc(-c3ccccc3)cc2)NC(=O)[C@H](Cc2ccc(C(=O)O)cc2)NC(=O)[C@H](Cc2cccc(C)c2)NC(=O)[C@H](CC(=O)O)NC(=O)[C@H](Cc2ccc(C(=O)O)cc2)NC(=O)[C@H](Cc2ccc(C(F)(F)F)cc2)NC(=O)CSC[C@@H](C(=O)N[C@@H](CCN)C(=O)NCCCCCCCCCCC(=O)O)NC1=O [Example 2583] ({CH2CO}-[Phe(4-CF3)][Phe(4-COOH)]D[Phe(3-Me)][Phe(4-COOH)][Bip][Phe(4-COOH)][NMeA][dL][Dab][Cha][Val(3-OH)][Nva]C[Dab][Aun]-OH; thioether N-14) | 37.5 nM |
| CC(C)C[C@H]1NC(=O)[C@H](C)N(C)C(=O)[C@H](Cc2ccc(C(=O)O)cc2)NC(=O)[C@H](Cc2ccc(-c3ccccc3)cc2)NC(=O)[C@H](Cc2ccc(C(=O)O)cc2)NC(=O)[C@H](Cc2cccc(C(F)(F)F)c2)NC(=O)[C@H](CC(=O)O)NC(=O)[C@H](Cc2ccc(C(=O)O)cc2)NC(=O)[C@H](Cc2ccc(OCC(=O)O)cc2)NC(=O)CSC[C@@H](C(=O)N[C@@H](CCN)C(=O)NCCCCCCCCCCC(=O)O)NC(=O)[C@H](CO)NC(=O)[C@H](C(C)(C)O)NC(=O)[C@H](CC2CCCCC2)NC(=O)[C@H](CCN)NC1=O [Example 2585] ({CH2CO}-Y(Carboxymethyl)[Phe(4-COOH)]D[Phe(3-CF3)][Phe(4-COOH)][Bip][Phe(4-COOH)][NMeA][dL][Dab][Cha][Val(3-OH)]SC[Dab][Aun]-OH; thioether N-14) | 2.5 nM |
